Test results from US12479847B2 (DANA-FARBER CANCER INSTITUTE, INC., priority 2019, dated 2025).

Tests used:
Assay in all cases: KINOMEscan (ScanMAX) kinase profiling
Assay type in all cases: binding
[1] = molecular target: T1, panel of 468 kinases (Plasmodium falciparum, UniProt P61075); conditions: PFPK5(P.falciparum); 1 μM; read-out: % control
T1 construct: purchased KINOMEscan (ScanMAX) service

[2] = molecular target: T2, panel of 468 kinases (Homo sapiens, UniProt P36888, D835Y); conditions: FLT3(D835Y); 1 μM; read-out: % control
T2 construct: purchased KINOMEscan (ScanMAX) service
T2 sequence (P36888 27-993 D835Y): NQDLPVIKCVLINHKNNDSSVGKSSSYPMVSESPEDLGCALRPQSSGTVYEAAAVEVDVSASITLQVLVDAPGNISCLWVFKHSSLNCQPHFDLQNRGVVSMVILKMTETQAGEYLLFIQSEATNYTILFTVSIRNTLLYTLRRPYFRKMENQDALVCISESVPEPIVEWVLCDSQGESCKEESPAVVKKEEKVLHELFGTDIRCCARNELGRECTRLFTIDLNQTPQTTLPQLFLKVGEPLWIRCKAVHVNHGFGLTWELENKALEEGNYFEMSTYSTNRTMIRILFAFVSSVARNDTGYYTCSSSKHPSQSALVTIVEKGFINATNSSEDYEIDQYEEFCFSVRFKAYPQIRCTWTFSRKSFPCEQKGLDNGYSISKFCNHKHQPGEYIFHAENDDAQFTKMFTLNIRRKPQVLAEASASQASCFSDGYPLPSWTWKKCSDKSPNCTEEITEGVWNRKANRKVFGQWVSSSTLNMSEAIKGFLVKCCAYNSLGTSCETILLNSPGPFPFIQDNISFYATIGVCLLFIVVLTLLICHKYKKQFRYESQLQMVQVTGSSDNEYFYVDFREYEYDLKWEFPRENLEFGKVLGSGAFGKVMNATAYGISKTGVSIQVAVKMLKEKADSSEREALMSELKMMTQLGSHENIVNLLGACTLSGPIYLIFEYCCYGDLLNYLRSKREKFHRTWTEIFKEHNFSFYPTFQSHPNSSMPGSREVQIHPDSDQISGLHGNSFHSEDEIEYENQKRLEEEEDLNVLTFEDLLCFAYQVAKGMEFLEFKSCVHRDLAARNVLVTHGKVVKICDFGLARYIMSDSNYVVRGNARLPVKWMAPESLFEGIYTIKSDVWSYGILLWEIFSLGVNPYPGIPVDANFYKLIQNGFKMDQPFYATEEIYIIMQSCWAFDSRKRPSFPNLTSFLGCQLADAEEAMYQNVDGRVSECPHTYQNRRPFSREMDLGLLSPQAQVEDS

[3] = molecular target: T3, panel of 468 kinases (Homo sapiens, UniProt Q13470); conditions: TNK1; 1 μM; read-out: % control
T3 construct: purchased KINOMEscan (ScanMAX) service
T3 sequence (Q13470 1-666): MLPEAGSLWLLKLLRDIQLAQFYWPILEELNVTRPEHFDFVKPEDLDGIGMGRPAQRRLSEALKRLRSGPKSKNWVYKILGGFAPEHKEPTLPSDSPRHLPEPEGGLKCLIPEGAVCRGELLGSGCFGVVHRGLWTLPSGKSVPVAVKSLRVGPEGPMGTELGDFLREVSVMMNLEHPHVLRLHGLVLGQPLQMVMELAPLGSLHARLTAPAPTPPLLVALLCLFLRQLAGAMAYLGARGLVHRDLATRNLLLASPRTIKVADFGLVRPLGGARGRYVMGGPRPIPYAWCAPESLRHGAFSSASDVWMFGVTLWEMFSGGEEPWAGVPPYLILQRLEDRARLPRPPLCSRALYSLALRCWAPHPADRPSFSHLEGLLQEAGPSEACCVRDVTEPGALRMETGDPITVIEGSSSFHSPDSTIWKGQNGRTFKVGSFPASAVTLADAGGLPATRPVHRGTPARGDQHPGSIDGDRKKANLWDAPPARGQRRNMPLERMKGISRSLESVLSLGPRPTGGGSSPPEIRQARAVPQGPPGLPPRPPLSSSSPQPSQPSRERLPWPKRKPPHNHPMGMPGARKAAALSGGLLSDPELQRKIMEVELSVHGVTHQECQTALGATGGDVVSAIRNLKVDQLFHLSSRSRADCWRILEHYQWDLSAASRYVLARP

[4] = molecular target: T4, panel of 468 kinases (Homo sapiens, UniProt Q6P2M8); conditions: CAMK1B; 1 μM; read-out: % control
T4 construct: purchased KINOMEscan (ScanMAX) service

[5] = molecular target: T5, panel of 468 kinases (Homo sapiens, UniProt Q13177); conditions: PAK2; 1 μM; read-out: % control
T5 construct: purchased KINOMEscan (ScanMAX) service

[6] = molecular target: T6, panel of 468 kinases (Homo sapiens, UniProt Q8NEV4); conditions: MYO3A; 1 μM; read-out: % control
T6 construct: purchased KINOMEscan (ScanMAX) service

[7] = molecular target: T7, panel of 468 kinases (Homo sapiens, UniProt Q8WU08); conditions: YANK1; 1 μM; read-out: % control
T7 construct: purchased KINOMEscan (ScanMAX) service

[8] = molecular target: T8, panel of 468 kinases (Homo sapiens, UniProt Q9UM73); conditions: ALK; 1 μM; read-out: % control
T8 construct: purchased KINOMEscan (ScanMAX) service

[9] = molecular target: T9, panel of 468 kinases (Homo sapiens, UniProt Q00526); conditions: CDK3; 1 μM; read-out: % control
T9 construct: purchased KINOMEscan (ScanMAX) service
T9 sequence (Q00526 whole entry): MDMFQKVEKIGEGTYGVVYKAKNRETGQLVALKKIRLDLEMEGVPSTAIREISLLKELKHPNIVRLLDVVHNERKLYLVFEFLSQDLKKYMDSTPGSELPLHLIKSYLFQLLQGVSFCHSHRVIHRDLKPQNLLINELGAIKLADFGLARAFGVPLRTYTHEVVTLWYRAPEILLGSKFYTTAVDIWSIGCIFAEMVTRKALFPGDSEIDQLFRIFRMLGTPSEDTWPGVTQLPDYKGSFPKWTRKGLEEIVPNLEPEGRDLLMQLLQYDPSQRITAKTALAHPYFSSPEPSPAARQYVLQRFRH

T4 sequence (Q6P2M8 whole entry): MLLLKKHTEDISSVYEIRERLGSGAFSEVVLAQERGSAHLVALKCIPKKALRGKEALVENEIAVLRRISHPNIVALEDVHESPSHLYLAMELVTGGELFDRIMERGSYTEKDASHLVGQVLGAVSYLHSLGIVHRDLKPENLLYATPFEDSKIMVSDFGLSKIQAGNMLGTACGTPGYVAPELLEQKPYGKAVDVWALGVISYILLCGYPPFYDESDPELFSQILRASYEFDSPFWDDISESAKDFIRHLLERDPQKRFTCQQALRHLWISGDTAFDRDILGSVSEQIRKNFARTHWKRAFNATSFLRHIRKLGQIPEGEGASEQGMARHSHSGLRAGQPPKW
T8 sequence (Q9UM73 19-1620): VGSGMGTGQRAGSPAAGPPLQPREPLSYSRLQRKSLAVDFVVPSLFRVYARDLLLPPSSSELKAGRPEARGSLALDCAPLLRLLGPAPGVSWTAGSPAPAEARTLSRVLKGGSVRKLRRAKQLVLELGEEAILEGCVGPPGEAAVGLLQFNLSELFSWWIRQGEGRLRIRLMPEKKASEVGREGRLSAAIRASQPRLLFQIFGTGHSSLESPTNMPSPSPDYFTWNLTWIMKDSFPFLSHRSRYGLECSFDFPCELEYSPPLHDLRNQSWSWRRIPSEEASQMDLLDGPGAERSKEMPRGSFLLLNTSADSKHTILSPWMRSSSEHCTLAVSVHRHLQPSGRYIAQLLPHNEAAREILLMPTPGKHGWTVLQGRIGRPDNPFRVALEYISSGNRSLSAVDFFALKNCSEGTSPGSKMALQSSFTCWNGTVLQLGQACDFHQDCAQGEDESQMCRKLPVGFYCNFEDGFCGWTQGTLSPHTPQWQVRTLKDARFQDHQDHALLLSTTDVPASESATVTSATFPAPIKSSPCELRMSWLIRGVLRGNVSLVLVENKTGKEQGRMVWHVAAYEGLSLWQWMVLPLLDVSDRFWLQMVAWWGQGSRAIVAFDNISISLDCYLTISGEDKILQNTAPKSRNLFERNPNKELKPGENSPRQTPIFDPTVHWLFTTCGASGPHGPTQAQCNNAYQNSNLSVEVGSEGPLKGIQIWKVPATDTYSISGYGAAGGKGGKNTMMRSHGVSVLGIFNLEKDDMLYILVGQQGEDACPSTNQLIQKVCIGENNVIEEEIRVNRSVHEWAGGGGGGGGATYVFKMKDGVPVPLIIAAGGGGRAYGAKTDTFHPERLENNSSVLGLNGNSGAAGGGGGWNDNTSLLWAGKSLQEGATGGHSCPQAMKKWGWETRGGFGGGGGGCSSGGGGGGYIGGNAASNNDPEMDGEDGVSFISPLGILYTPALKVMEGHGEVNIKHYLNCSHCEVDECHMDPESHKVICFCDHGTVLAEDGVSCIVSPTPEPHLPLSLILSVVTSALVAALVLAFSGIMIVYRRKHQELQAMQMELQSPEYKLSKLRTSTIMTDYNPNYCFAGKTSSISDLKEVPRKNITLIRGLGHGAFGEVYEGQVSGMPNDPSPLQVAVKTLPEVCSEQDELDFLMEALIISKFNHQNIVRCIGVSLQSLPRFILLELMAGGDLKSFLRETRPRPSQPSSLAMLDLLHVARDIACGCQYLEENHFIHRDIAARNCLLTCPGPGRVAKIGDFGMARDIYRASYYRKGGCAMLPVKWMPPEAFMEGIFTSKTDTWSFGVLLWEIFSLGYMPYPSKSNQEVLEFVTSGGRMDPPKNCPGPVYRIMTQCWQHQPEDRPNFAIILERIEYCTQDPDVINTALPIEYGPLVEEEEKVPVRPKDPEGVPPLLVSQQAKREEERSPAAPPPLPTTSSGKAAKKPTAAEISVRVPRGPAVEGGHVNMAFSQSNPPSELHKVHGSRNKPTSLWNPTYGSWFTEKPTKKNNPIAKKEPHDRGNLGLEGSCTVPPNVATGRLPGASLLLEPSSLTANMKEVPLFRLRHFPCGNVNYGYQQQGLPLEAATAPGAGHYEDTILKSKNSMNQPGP
T1 sequence (P61075 whole entry): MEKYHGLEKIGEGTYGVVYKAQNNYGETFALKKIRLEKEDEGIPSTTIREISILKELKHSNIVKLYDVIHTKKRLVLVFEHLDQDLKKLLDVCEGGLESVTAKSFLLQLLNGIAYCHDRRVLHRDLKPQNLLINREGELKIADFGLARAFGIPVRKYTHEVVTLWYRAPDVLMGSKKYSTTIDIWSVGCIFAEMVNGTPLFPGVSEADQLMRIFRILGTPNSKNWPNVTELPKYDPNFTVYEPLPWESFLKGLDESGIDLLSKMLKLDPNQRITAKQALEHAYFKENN
T5 sequence (Q13177 whole entry): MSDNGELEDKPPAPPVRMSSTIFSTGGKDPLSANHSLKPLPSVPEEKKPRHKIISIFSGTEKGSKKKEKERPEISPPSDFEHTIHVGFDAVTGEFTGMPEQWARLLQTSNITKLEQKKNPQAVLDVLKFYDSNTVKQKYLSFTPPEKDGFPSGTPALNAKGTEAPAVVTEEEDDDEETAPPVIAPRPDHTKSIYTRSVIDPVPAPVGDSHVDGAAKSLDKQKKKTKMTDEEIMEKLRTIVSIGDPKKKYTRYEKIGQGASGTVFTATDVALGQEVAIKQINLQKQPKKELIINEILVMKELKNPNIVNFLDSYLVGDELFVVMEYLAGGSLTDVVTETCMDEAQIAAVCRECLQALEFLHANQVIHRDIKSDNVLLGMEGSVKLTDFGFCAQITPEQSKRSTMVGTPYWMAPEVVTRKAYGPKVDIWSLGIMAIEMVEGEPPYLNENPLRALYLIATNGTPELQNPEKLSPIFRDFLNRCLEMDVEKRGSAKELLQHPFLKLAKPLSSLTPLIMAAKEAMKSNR
T6 sequence (Q8NEV4 whole entry): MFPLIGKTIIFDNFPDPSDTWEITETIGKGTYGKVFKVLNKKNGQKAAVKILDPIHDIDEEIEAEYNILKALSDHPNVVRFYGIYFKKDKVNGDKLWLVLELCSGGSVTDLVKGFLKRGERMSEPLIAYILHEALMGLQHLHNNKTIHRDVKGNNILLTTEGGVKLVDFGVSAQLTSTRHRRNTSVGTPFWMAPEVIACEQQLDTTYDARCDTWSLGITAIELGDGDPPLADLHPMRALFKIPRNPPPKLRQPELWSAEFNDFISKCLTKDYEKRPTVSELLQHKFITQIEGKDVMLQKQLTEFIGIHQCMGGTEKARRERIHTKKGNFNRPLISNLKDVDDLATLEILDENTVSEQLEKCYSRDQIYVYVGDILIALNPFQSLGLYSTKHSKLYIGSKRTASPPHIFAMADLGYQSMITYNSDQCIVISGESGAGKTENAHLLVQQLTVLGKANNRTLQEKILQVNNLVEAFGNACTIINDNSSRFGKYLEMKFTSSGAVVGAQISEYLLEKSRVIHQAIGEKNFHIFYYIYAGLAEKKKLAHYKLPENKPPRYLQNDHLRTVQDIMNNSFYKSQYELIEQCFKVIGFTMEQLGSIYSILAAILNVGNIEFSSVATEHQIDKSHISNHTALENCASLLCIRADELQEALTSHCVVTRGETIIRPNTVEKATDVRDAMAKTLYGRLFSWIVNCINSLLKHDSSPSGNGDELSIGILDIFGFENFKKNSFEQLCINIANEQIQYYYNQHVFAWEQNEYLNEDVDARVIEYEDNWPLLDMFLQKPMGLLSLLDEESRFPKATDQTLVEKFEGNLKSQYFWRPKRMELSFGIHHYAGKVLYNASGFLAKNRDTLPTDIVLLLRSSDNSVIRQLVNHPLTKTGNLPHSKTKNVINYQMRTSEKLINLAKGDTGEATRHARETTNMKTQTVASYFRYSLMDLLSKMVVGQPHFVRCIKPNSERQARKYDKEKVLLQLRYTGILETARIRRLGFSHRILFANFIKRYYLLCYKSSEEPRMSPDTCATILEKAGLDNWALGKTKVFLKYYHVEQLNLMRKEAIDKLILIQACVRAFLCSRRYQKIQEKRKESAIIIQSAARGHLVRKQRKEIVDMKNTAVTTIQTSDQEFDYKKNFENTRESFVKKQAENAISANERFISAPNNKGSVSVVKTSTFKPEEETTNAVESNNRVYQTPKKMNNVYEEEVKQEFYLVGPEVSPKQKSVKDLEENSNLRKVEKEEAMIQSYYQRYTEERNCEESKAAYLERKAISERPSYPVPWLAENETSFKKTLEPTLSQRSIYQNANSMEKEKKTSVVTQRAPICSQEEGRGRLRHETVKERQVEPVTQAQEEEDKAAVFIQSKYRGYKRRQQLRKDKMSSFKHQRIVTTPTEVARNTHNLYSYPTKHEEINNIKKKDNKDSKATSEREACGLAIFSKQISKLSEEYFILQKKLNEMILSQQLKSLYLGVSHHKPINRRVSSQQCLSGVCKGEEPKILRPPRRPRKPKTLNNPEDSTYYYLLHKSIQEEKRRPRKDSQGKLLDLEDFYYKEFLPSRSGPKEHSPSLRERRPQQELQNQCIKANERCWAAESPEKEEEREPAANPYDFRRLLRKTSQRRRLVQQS
T7 sequence (Q8WU08 whole entry): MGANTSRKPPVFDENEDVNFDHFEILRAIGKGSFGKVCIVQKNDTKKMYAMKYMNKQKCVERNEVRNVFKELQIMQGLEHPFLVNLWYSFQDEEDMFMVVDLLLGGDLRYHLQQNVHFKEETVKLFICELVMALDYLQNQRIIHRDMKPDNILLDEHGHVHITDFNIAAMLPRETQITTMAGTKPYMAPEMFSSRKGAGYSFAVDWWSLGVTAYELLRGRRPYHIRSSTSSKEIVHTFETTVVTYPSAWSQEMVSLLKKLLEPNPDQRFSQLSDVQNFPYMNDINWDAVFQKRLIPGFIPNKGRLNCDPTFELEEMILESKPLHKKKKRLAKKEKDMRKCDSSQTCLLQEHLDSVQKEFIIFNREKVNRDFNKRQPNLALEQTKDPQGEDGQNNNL

Compound | remaining binding at 1 µM [1] [%] | remaining binding at 1 µM [2] [%] | remaining binding at 1 µM [3] [%] | remaining binding at 1 µM [4] [%] | remaining binding at 1 µM [5] [%] | remaining binding at 1 µM [6] [%] | remaining binding at 1 µM [7] [%] | remaining binding at 1 µM [8] [%] | remaining binding at 1 µM [9] [%]
CNc1nc(Nc2ccc(S(=O)(=O)N3CCC(N4CCOCC4)CC3)cc2OC)nc2[nH]cc(Cl)c12 [Compound 12, 5-chloro-N2-(2-methoxy-4-((4-morpholinopiperidin-1-yl)sulfonyl)phenyl)-N4-methyl-7H-pyrrolo[2,3-d]pyrimidine-2,4-diamine] | 64 | 96 | 100 | 95 | 100 | 100 | 100 | 3.4 | 86
CNc1nc(Nc2ccc(P3(=O)CCN(C4CCOCC4)CC3)cc2OC)nc2[nH]cc(Cl)c12 [Compound 77, 4-(4-((5-chloro-4-(methylamino)-7H-pyrrolo[2,3-d]pyrimidin-2-yl)amino)-3-methoxyphenyl)-1-(tetrahydro-2H-pyran-4-yl)-1,4-azaphosphinane 4-oxide] | 75 | 47 | 96 | 54 | 100 | 62 | 98 | 2 | 95
CNc1nc(Nc2ccc(C(=O)N3CCC(N4CCOCC4)CC3)c3c2OCO3)nc2[nH]cc(Cl)c12 [Compound 75, (7-((5-chloro-4-(methylamino)-7H-pyrrolo[2,3-d]pyrimidin-2-yl)amino)benzo[d][1,3]dioxol-4-yl)(4-morpholinopiperidin-1-yl)methanone] | 65 | 14 | 100 | 44 | 100 | 98 | 100 | 1.9 | 98
